Results taken from patent US20240383911A1, “AZAINDAZOLE MACROCYCLE COMPOUNDS AND USES THEREOF” (BROADENBIO CO., LTD, priority 2021, published 2024).

Assays:
Human Jurkat-E6-1 cells = test: Detection of IL-2 production by Jurkat cells using ELISA; format: cell-based; settings: anti-CD3/anti-CD28 stimulation 24 hours, read-out: Percentage of the amount of IL-2 secreted by compound treated vs DMSO-treated cells; for activity at 3 µM: tested compound 3.0 μM; for activity at 0.33 µM: tested compound 0.33 μM
Description: (§1) Tested compounds: compounds prepared in the Examples of this invention.
Human Jurkat-E6-1 cells were incubated with various concentrations of tested compounds for 30 minutes in a humidified incubator at 37° C. and 5% CO2. Cells were transferred to cell culture plates pre-coated with anti-human CD3 antibody, then soluble anti-human CD28 antibody was added, and cells were stimulated for 24 hours at 37° C. and 5% CO2 in a humidified incubator. The cell culture medium was collected after centrifugation, and was then transferred to a 96-well transparent microtiter plate (Thermo) pre-coated with anti-human IL-2 antibody, incubated at room temperature for 2 hours with gently shaking, washed with washing buffer for 4 times, and then followed the ELISA MAX Deluxe Set Human IL-2 (BioLegend) kit procedures, used a microplate reader (Molecular Device, i3X) to read the GD value at 450 nm. The best standard curve was selected by the microplate reader application software, and the corresponding concentration was calculated according to the GD value of the standard. Results are expressed as a percentage (%) of the amount of IL-2 secreted by compound-treated vs DMSO-treated cells.

HPK1 = HPK1 (Homo sapiens, UniProt Q92918); test: HPK1 kinase activity inhibition test (ADP-Glo, luminescence); format: biochemical; settings: 2 μM ATP, 5 nM HPK1, read-out: IC50, inhibitory effects on HPK1 kinase activity
Sequence of HPK1 (Q92918 whole entry): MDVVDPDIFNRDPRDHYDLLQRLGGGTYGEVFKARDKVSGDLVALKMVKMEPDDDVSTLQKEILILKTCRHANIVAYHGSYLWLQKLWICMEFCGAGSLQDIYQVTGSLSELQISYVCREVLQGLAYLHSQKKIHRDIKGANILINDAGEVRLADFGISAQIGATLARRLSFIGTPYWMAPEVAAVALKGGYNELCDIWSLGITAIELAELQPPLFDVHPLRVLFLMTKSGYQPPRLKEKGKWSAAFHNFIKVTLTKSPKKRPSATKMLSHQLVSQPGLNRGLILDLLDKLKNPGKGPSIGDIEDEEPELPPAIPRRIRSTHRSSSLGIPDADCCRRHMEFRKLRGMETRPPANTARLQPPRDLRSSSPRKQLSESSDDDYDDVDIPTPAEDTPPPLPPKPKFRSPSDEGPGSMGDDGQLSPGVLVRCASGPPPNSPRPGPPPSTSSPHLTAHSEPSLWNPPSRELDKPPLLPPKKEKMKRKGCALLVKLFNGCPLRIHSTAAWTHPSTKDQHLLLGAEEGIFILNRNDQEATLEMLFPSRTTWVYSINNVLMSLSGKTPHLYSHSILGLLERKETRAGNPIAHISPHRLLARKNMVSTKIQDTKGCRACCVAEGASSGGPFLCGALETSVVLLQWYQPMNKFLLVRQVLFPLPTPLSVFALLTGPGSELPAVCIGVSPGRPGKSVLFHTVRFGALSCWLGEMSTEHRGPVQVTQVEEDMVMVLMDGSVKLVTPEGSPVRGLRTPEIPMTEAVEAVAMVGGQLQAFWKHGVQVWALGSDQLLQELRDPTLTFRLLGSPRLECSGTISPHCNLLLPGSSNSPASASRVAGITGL
Description: The kinase activity of HPK1 is manifested as activity of autophosphorylation and phosphorylation of downstream substrates. In the process of autophosphorylation, additional substrates are not required, and ATP is consumed to generate ADP. The amount of the product is measured by ADP-Glo reagent and luminescence method to reflect kinase activity.
as §1
Preparation of compound stock solution: dissolve the test compound in 100% DMSO to make a 10 mM stock solution;
Preparation of 4×Kinase Reaction Buffer:
Preparation of 2×HPK1 Kinase Solution:
Preparation of 4×ATP Mixture:
Dilute the stock solution of the test compound by 5 times with 100% DMSO, make a 4-fold equal dilution in a 96-well dilution plate, add 1 μL of the compound to 49 μL of kinase reaction buffer, and shake on a microplate shaker for 20 minutes. Transfer 2 μL of 2×HPK1 kinase solution to 384 reaction plate, add 1 μL of the test compound to the 384 reaction plate (Greiner, Cat #784075), centrifuge for 1 minute (1000 rpm/min), incubate at 25° C. for 10 minutes. Transfer 1 μL of the 4×ATP mixture to a 384 reaction plate, centrifuge for 1 minute (1000 rpm/min), and incubate at 25° C. for 60 minutes. In the reaction system, the final concentration of DMSO is 0.5%. Transfer 4 μL of ADP-Glo to a 384 reaction plate, centrifuge for 1 minute (1000 rpm/min), and incubate at 25° C. for 40 minutes. Transfer 8 μL detection solution to a 384 reaction plate, centrifuge for 1 minute (1000 rpm/min), and incubate at 25° C. for 40 minutes. The […] is read using a Biotek multi-function plate reader, and the IC50 (half inhibitory concentration) of the compound is obtained using a four-coefficient nonlinear fitting formula.

Row | SMILES | activity at 3 µM (Human Jurkat-E6-1 cells) [%] | IC50 (HPK1) [nM] | activity at 0.33 µM (Human Jurkat-E6-1 cells) [%] | activity at 1 µM (Human Jurkat-E6-1 cells; tested compound 1.0 μM) [%]
1 | Fc1cccc2c1-c1cc3c(n[nH]c3cn1)-c1cnc(N3CCOCC3)c(c1)OCCCO2 [Compound 4, 16-fluoro-5-(morpholin-4-yl)-7,11-dioxa-4,19,22,23-tetraazapentacyclo[16.5.2.1^2,6.0^12,17.0^21,24]hexacosa-1(23),2(26),3,5,12,14,16,18,20,24-decaene] | 801 | 5 to 50 | – | –
2 | CN1CCN(c2ccc3cc2OCCCCOc2cccc(F)c2-c2cc4c-3n[nH]c4cn2)CC1 [Compound 7, 17-fluoro-5-(4-methylpiperazin-1-yl)-7,12-dioxa-20,23,24-triazapentacyclo[17.5.2.1^2,6.0^13,18.0^22,25]heptacosa-1(24),2(27),3,5,13,15,17,19,21,25-decaene] | 404 | 5 to 50 | – | –
3 | CN1CCN(c2ccc3cc2OCCCOCc2cccc(F)c2-c2cc4c-3n[nH]c4cn2)CC1(C)C [Compound 17, 17-fluoro-5-(3,3,4-trimethylpiperazin-1-yl)-7,11-dioxa-20,23,24-triazapentacyclo[17.5.2.1^2,6.0^13,18.0^22,25]heptacosa-1(24),2,4,6(27),13(18),14,16,19,21,25-decaene] | – | ≤ 5 | 439 | –
4 | CN1C2CCC1CN(c1ccc3cc1OCCCOCc1cccc(F)c1-c1cc4c-3n[nH]c4cn1)C2 [Compound 18, 17-fluoro-5-{8-methyl-3,8-diazabicyclo[3.2.1]octan-3-yl}-7,11-dioxa-20,23,24-triazapentacyclo[17.5.2.1^2,6.0^13,18.0^22,25]heptacosa-1(24),2,4,6(27),13(18),14,16,19,21,25-decaene] | – | ≤ 5 | 486 | –
5 | CN1CCN(c2ccc3cc2OCCCCOCc2cccc(F)c2-c2cc4c-3n[nH]c4cn2)CC1 [Compound 100, 18-fluoro-5-(4-methylpiperazin-1-yl)-7,12-dioxa-21,24,25-triazapentacyclo[18.5.2.1^2,6.0^14,19.0^23,26]octacosa-1(25),2(28),3,5,14(19),15,17,20,22,26-decaene] | – | 5 to 50 | – | 235
6 | CN1CCN(c2ccc3cc2OCCCCCc2cccc(F)c2-c2cc4c-3n[nH]c4cn2)CC1 [Compound 101, 17-fluoro-5-(4-methylpiperazin-1-yl)-7-oxa-20,23,24-triazapentacyclo[17.5.2.1^2,6.0^13,18.0^22,25]heptacosa-1(24),2(27),3,5,13(18),14,16,19,21,25-decaene] | – | ≤ 5 | 257 | –
7 | Fc1cccc2c1-c1cc3c(n[nH]c3cn1)-c1ccc(N3CCC(N4CCOCC4)CC3)c(c1)OCCCO2 [Compound 104, 16-fluoro-5-[4-(morpholin-4-yl)piperidin-1-yl]-7,11-dioxa-19,22,23-triazapentacyclo[16.5.2.1^2,6.0^12,17.0^21,24]hexacosa-1(23),2,4,6(26),12(17),13,15,18,20,24-decaene] | – | ≤ 5 | 273 | –
8 | CN1CCN(c2ccc3cc2OCCCOc2cccc(F)c2-c2cc4c-3n[nH]c4cn2)C[C@@H]1CO [Compound 130, [(2R)-4-{16-fluoro-7,11-dioxa-19,22,23-triazapentacyclo[16.5.2.1^2,6.0^12,17.0^21,24]hexacosa-1(23),2,4,6(26),12(17),13,15,18,20,24-decaen-5-yl}-1-methylpiperazin-2-yl]methanol] | – | ≤ 5 | – | –
9 | CN1CCN(c2ccc3cc2OCCCOc2cccc(F)c2-c2cc4c-3n[nH]c4cn2)C[C@H]1CO [Compound 131, [(2S)-4-{16-fluoro-7,11-dioxa-19,22,23-triazapentacyclo[16.5.2.1^2,6.0^12,17.0^21,24]hexacosa-1(23),2,4,6(26),12(17),13,15,18,20,24-decaen-5-yl}-1-methylpiperazin-2-yl]methanol] | – | ≤ 5 | – | –
10 | O=C1OC[C@H]2CN(c3ccc4cc3OCCCOc3cccc(F)c3-c3cc5c-4n[nH]c5cn3)CCN12 [Compound 134, (8aR)-7-{16-fluoro-7,11-dioxa-19,22,23-triazapentacyclo[16.5.2.1^2,6.0^12,17.0^21,24]hexacosa-1(23),2,4,6(26),12(17),13,15,18,20,24-decaen-5-yl}-hexahydro-1H-[1,3]oxazolo[3,4-a]pyrazin-3-one] | – | ≤ 5 | – | –
11 | O=C1OC[C@@H]2CN(c3ccc4cc3OCCCOc3cccc(F)c3-c3cc5c-4n[nH]c5cn3)CCN12 [Compound 135, (8aS)-7-{16-fluoro-7,11-dioxa-19,22,23-triazapentacyclo[16.5.2.1^2,6.0^12,17.0^21,24]hexacosa-1(23),2,4,6(26),12(17),13,15,18,20,24-decaen-5-yl}-hexahydro-1H-[1,3]oxazolo[3,4-a]pyrazin-3-one] | – | ≤ 5 | – | –
12 | CN1C[C@H]2CN(c3ccc4cc3OCCCOc3cccc(F)c3-c3cc5c-4n[nH]c5cn3)CCN2CC1=O [Compound 137, (9aR)-8-{16-fluoro-7,11-dioxa-19,22,23-triazapentacyclo[16.5.2.1^2,6.0^12,17.0^21,24]hexacosa-1(23),2,4,6(26),12(17),13,15,18,20,24-decaen-5-yl}-2-methyl-octahydro-1H-[1,4]diazino[1,2-a]pyrazin-3-one] | – | ≤ 5 | – | –
13 | CN1C[C@@H]2CN(c3ccc4cc3OCCCOc3cccc(F)c3-c3cc5c-4n[nH]c5cn3)CCN2CC1=O [Compound 138, (9aS)-8-{16-fluoro-7,11-dioxa-19,22,23-triazapentacyclo[16.5.2.1^2,6.0^12,17.0^21,24]hexacosa-1(23),2,4,6(26),12(17),13,15,18,20,24-decaen-5-yl}-2-methyl-octahydro-1H-[1,4]diazino[1,2-a]pyrazin-3-one] | – | ≤ 5 | – | –
14 | CN1C[C@@H]2C[C@H]1CN2c1ccc2cc1OCCCOc1cccc(F)c1-c1cc3c-2n[nH]c3cn1 [Compound 140, 16-fluoro-5-[(1S,4S)-5-methyl-2,5-diazabicyclo[2.2.1]heptan-2-yl]-7,11-dioxa-19,22,23-triazapentacyclo[16.5.2.1^2,6.0^12,17.0^21,24]hexacosa-1(23),2,4,6(26),12(17),13,15,18,20,24-decaene] | – | ≤ 5 | – | –
15 | CN1C[C@H]2C[C@@H]1CN2c1ccc2cc1OCCCOc1cccc(F)c1-c1cc3c-2n[nH]c3cn1 [Compound 141, 16-fluoro-5-[(1R,4R)-5-methyl-2,5-diazabicyclo[2.2.1]heptan-2-yl]-7,11-dioxa-19,22,23-triazapentacyclo[16.5.2.1^2,6.0^12,17.0^21,24]hexacosa-1(23),2,4,6(26),12(17),13,15,18,20,24-decaene] | – | ≤ 5 | – | –
16 | Fc1cccc2c1-c1cc3c(n[nH]c3cn1)-c1ccc(N3C[C@@H]4C[C@H]3CN4C3COC3)c(c1)OCCCO2 [Compound 142, 16-fluoro-5-[(1S,4S)-5-(oxetan-3-yl)-2,5-diazabicyclo[2.2.1]heptan-2-yl]-7,11-dioxa-19,22,23-triazapentacyclo[16.5.2.1^2,6.0^12,17.0^21,24]hexacosa-1(23),2,4,6(26),12(17),13,15,18,20,24-decaene] | – | 5 to 50 | – | –
17 | CN1CCN(c2ccc3cc2OCCCOc2cccc(F)c2-c2cc4c-3n[nH]c4cn2)CC1(C)C [Compound 143, 16-fluoro-5-(3,3,4-trimethylpiperazin-1-yl)-7,11-dioxa-19,22,23-triazapentacyclo[16.5.2.1^2,6.0^12,17.0^21,24]hexacosa-1(23),2,4,6(26),12(17),13,15,18,20,24-decaene] | – | ≤ 5 | – | –
